Read-outs that look alike come from different tables or passages of the source.
Legend:
[1] = logP determination by HPLC on reversed-phase column (EEC Directive 79/831 Annex V.A8); format: physicochemical; settings: reversed-phase C18 HPLC column
Procedure: The given logP values were determined in accordance with EEC Directive 79/831 Annex V.A8 by HPLC (High Performance Liquid Chromatography) on a reversed-phase column (C 18). Temperature: 43° C. […] Calibration was carried out using unbranched alkan-2-ones (having 3 to 16 carbon atoms) with known logP values (determination of the logP values by the retention times using linear interpolation between two successive alkanones).

Venturia inaequalis = test: Venturia test (apple)/protective; format: in vivo; settings: 240 h, apple plants, protective, application rate 100 g/ha, evaluation 10 days after inoculation, read-out: % efficacy
Procedure: Venturia Test (Apple)/Protective
• Solvents: 24.5 parts by weight of acetone 24.5 parts by weight of dimethylacetamide • Emulsifier: 1 part by weight of alkylaryl polyglycol ether
(§1) To produce a suitable preparation of active compound, 1 part by weight of active compound is mixed with the stated amounts of solvents and emulsifier, and the concentrate is diluted with water to the desired concentration.
To test for protective activity, young plants are sprayed with the preparation of active compound at the stated application rate. After the spray coating has dried on, the plants are inoculated with an aqueous conidia suspension of the apple scab pathogen Venturia inaequalis and then remain in an incubation cabin at about 20° C. and 100% relative atmospheric humidity for 1 day.
The plants are then placed in a greenhouse at about 21° C. and a relative atmospheric humidity of about 90%.
Evaluation is carried out 10 days after the inoculation. 0% means an efficacy which corresponds to that of the control, whereas an efficacy of 100% means that no infection is observed.

Botrytis cinerea = test: Botrytis test (bean)/protective; format: in vivo; settings: 48 h, bean plants, protective, application rate 500 g/ha, evaluation 2 days after inoculation, read-out: % efficacy
Procedure: Botrytis Test (Bean)/Protective
• Solvents:24.5 parts by weight of acetone 24.5 parts by weight of dimethylacetamide • Emulsifier: 1 part by weight of alkylaryl polyglycol ether
as §1
To test for protective activity, young plants are sprayed with the preparation of active compound at the stated application rate. After the spray coating has dried on, 2 small pieces of agar colonized with Botrytis cinerea are placed onto each leaf. The inoculated plants are placed in a dark chamber at about 20° C. and 100% relative atmospheric humidity.
2 days after the inoculation, the size of the infected areas on the leaves is evaluated. 0% means an efficacy which corresponds to that of the control, whereas an efficacy of 100% means that no infection is observed.

Alternaria solani = test: Alternaria test (tomato)/protective; format: in vivo; settings: tomato plants, protective, application rate 750 g/ha, evaluation 7 days after inoculation
Procedure: Alternaria Test (Tomato)/Protective
• Solvent: 49 parts by weight of N,N-dimethylformamide • Emulsifier: 1 part by weight of alkylaryl polyglycol ether
To produce a suitable preparation of active compound, 1 part by weight of active compound is mixed with the stated amounts of solvent and emulsifier, and the concentrate is diluted with water to the desired concentration.
To test for protective activity, young tomato plants are sprayed with the preparation of active compound at the stated application rate. 1 day after the treatment, the plants are inoculated with a spore suspension of Alternaria solani and are then allowed to stand at 100% relative humidity and 20° C. for 24 h. The plants are then allowed to stand at 96% relative atmospheric humidity and a temperature of 20° C.
Evaluation is carried out 7 days after the inoculation. 0% means an efficacy which corresponds to that of the control, whereas an efficacy of 100% means that no infection is observed.

Puccinia recondite = test: Puccinia test (wheat)/protective; format: in vivo; settings: 240 h, wheat plants, protective, application rate 500 g/ha, evaluation 10 days after inoculation, solvent/emulsifier parts 25/0.5, 25/0.6 or 50/1.0, read-out: % efficacy
Procedure: Puccinia Test (Wheat)/Protective • Solvent: N,N-dimethylacetamide • Emulsifier: alkylaryl polyglycol ether […] To test for protective activity, young plants are sprayed with the preparation of active compound at the stated application rate. After the spray coating has dried on, the plants are sprayed with a conidia suspension of Puccinia recondite. […] The plants are then placed in a greenhouse at a temperature of about 20° C. and a relative atmospheric humidity of 80% to promote the development of rust pustules.

[2] = Table 1 logP / m.p., C18, 43° C., acidic range (pH 2.3), read-out: logP

Row | Structure (SMILES) | chromatographic logP ([1]; pH 2.3, C18, 43° C., read-out: logP (pH 2.3)) | chromatographic logP [1, 2] | pest or weed control at 100 g/ha (Venturia inaequalis) | pest or weed control at 500 g/ha (Botrytis cinerea) | % efficacy (Alternaria solani) | pest or weed control at 500 g/ha (Puccinia recondite)
1 | CC1CC(C)(C)c2cccc(NC(=O)C3=C(C(F)(F)F)OCCS3)c21 (stereo not drawn) [Example 12] | – | – | 100% | 97% | – | –
2 | O=C(Nc1ccc(F)cc1-c1ccc(Cl)c(Cl)c1)C1=C(C(F)(F)F)OCCS1 [Example 17] | – | 3.95 | 100% | 96% | – | 86%
3 | O=C(Nc1ccccc1-c1ccc(Cl)c(Cl)c1)C1=C(C(F)(F)F)OCCS1 [Example 19] | – | 3.91 | 100% | 100% | 100% | 100%
4 | O=C(Nc1ccccc1-c1ccc(C(F)(F)F)cc1)C1=C(C(F)(F)F)OCCS1 [Example 20] | – | 3.73 | 88% | 100% | – | –
5 | CCCO/N=C/c1ccc(-c2ccccc2NC(=O)C2=C(C(F)(F)F)OCCS2)cc1 [Example 22] | – | 4.25 | 100% | 100% | – | –
6 | O=C(Nc1ccccc1-c1ccc(Cl)c(F)c1)C1=C(C(F)(F)F)OCCS1 [Example 23] | – | 3.62 | – | – | – | 89%
7 | O=C(Nc1ccccc1-c1ccc(F)c(Cl)c1)C1=C(C(F)(F)F)OCCS1 [Example 24] | – | 3.6 | – | – | – | 100%
8 | O=C(Nc1ccccc1-c1ccc(C(F)(F)F)c(F)c1)C1=C(C(F)(F)F)OCCS1 [Example 29] | – | 3.75 | – | – | – | 94%
9 | CC/C(=N\OC)c1ccc(-c2ccccc2NC(=O)C2=C(C(F)(F)F)OCCS2)cc1 [Example 56] | – | 4.08 | – | – | – | 88%

The next lines start with results.

Row | chromatographic logP ([1]; pH 2.3, C18, 43° C., read-out: logP (pH 2.3)) | chromatographic logP [1, 2] | Structure (SMILES) | pest or weed control at 100 g/ha (Venturia inaequalis) | pest or weed control at 500 g/ha (Botrytis cinerea) | % efficacy (Alternaria solani) | pest or weed control at 500 g/ha (Puccinia recondite)
10 | 4.18 | – | CC(CC(C)(C)C)c1ccccc1NC(=O)C1=C(C(F)(F)F)OCCS1 (stereo not drawn) [Example 2, N-[2-(1,3,3-trimethylbutyl)phenyl]-6-trifluoromethyl-2,3-dihydro-1,4-oxathiin-5-carboxamide] | 98% | 100% | 100% | 100%
11 | – | 3.92 | CC(C)CC(C)c1ccccc1NC(=O)C1=C(C(F)(F)F)OCCS1 (stereo not drawn) [Example 18] | 100% | 100% | – | 100%
12 | – | 4.22 | CC(C)O/N=C/c1ccc(-c2ccccc2NC(=O)C2=C(C(F)(F)F)OCCS2)cc1 [Example 21] | 100% | 100% | 100% | –
13 | – | 4 | Cc1cc(Cl)ccc1-c1ccccc1NC(=O)C1=C(C(F)(F)F)OCCS1 [Example 26] | – | – | 100% | –
14 | – | 3.7 | O=C(Nc1ccccc1-c1ccc(Br)cc1)C1=C(C(F)(F)F)OCCS1 [Example 27] | – | – | – | 88%
15 | – | 3.65 | Cc1cc(-c2ccccc2NC(=O)C2=C(C(F)(F)F)OCCS2)ccc1F [Example 35] | – | – | – | 88%
16 | – | 4.38 | CC(CC1CCCC1)c1ccccc1NC(=O)C1=C(C(F)(F)F)OCCS1 (stereo not drawn) [Example 37] | – | – | – | 93%
17 | – | 3.89 | Cc1ccc(-c2ccccc2NC(=O)C2=C(C(F)(F)F)OCCS2)cc1Cl [Example 38] | – | – | – | 88%
18 | – | 3.69 | O=C(Nc1ccccc1-c1ccc(Br)c(F)c1)C1=C(C(F)(F)F)OCCS1 [Example 57] | – | – | – | 88%
19 | – | 3.82 | O=C(Nc1ccccc1-c1ccc(Cl)cc1Cl)C1=C(C(F)(F)F)OCCS1 [Example 79] | – | – | – | 86%
20 | – | 4.03 | CC(C)CC(C)c1ccccc1NC(=O)C1=C(C(F)F)OCCS1 (stereo not drawn) [Example 82] | – | – | – | 100%

— patent US7847108B2, “Oxathiin carboxamides” (Bayer CropScience AG, priority 2003, dated 2010)
